Assay results from PubChem BioAssay AID256 (DTP/NCI, 2004).
Inconclusive results and toxic doses are left out. The calls were made as follows: active = survival T/C of 150% or more; inactive = T/C below 125% in these data.

System: CD2F1 mice, L1210 leukemia ip, survival T/C
Test: NCI In Vivo Anticancer Drug Screen. Data for tumor model L1210 Leukemia (intraperitoneal) in CD2F1 (CDF1) mice
Conditions: higher = longer survival
Procedure, shortened: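 In this screen, transplantable tumors were grown in mice given either the compound or its vehicle. Results were expressed as the treated measurement relative to the control measurement.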

[1] = endpoint: mean survival time, dose: 12.5 mg/kg/injection, schedule: Q01DX009 (ip), vehicle: saline with Tween-80
[2] = endpoint: mean survival time, dose: 25.0 mg/kg/injection, schedule: Q01DX009 (ip), vehicle: saline with Tween-80
[3] = endpoint: mean survival time, dose: 50.0 mg/kg/injection, schedule: Q01DX009 (ip), vehicle: saline with Tween-80
[4] = endpoint: mean survival time, dose: 100.0 mg/kg/injection, schedule: Q01DX009 (ip), vehicle: saline with Tween-80
[5] = endpoint: mean survival time, dose: 100.0 mg/kg/injection, schedule: Q04DX002 (ip), vehicle: saline with Tween-80
[6] = endpoint: mean survival time, dose: 200.0 mg/kg/injection, schedule: Q04DX002 (ip), vehicle: saline with Tween-80
[7] = endpoint: mean survival time, dose: 200.0 mg/kg/injection, schedule: Q01DX009 (ip), vehicle: saline with Tween-80
[8] = endpoint: mean survival time, dose: 400.0 mg/kg/injection, schedule: Q01DX009 (ip), vehicle: saline with Tween-80
[9] = endpoint: mean survival time, dose: 50.0 mg/kg/injection, schedule: Q01DX009 (ip), vehicle: saline
[10] = endpoint: mean survival time, dose: 100.0 mg/kg/injection, schedule: Q04DX003 (ip), vehicle: saline with Tween-80
[11] = endpoint: mean survival time, dose: 75.0 mg/kg/injection, schedule: Q01DX001 (ip), vehicle: saline
[12] = endpoint: mean survival time, dose: 100.0 mg/kg/injection, schedule: Q01DX001 (ip), vehicle: saline
[13] = endpoint: mean survival time, dose: 200.0 mg/kg/injection, schedule: Q01DX001 (ip), vehicle: saline
[14] = endpoint: mean survival time, dose: 150.0 mg/kg/injection, schedule: Q01DX001 (ip), vehicle: saline
[15] = endpoint: mean survival time, dose: 25.0 mg/kg/injection, schedule: Q04DX002 (ip), vehicle: saline with Tween-80
[16] = endpoint: mean survival time, dose: 50.0 mg/kg/injection, schedule: Q04DX002 (ip), vehicle: saline with Tween-80

Measured: T/C

O=C(CCl)Nc1nccs1
inactive: [1] 100 % of control | [2] 95 % of control | [3] 97 % of control | [4] 92 % of control

CN(/N=N/c1nc[nH]c1C(N)=O)C(C)(C)C
inactive: endpoint: mean survival time, dose: 18.75 mg/kg/injection, schedule: Q01DX009 (ip), vehicle: Klucel (hydroxypropylcellulose) (HPC) 96 % of control | endpoint: mean survival time, dose: 37.5 mg/kg/injection, schedule: Q01DX009 (ip), vehicle: Klucel (hydroxypropylcellulose) (HPC) 110 % of control | endpoint: mean survival time, dose: 75.0 mg/kg/injection, schedule: Q01DX009 (ip), vehicle: Klucel (hydroxypropylcellulose) (HPC) 109 % of control | endpoint: mean survival time, dose: 150.0 mg/kg/injection, schedule: Q01DX009 (ip), vehicle: Klucel (hydroxypropylcellulose) (HPC) 109 % of control | endpoint: mean survival time, dose: 300.0 mg/kg/injection, schedule: Q01DX009 (ip), vehicle: Klucel (hydroxypropylcellulose) (HPC) 103 % of control

CC1CCC2(OC1)OC1CC3C4CCC5(C)CC(=O)CCC5(C)C4CCC3(C)C1C2C (stereo not drawn)
inactive: [5] 90 % of control | [6] 86 % of control

CC(C)(C)C1=CC(=C2C=C(C(C)(C)C)C(=O)C(C(C)(C)C)=C2)C=C(C(C)(C)C)C1=O
inactive: endpoint: mean survival time, dose: 75.0 mg/kg/injection, schedule: Q04DX003 (ip), vehicle: saline with Tween-80 100 % of control | [4] 95 % of control | endpoint: mean survival time, dose: 150.0 mg/kg/injection, schedule: Q04DX003 (ip), vehicle: saline with Tween-80 100 % of control | [7] 91 % of control | endpoint: mean survival time, dose: 300.0 mg/kg/injection, schedule: Q04DX003 (ip), vehicle: saline with Tween-80 89 % of control | [8] 91 % of control

CCCCCCCC(=O)N1C=CN(C(=O)CCCCCCC)C1
inactive: endpoint: mean survival time, dose: 75.0 mg/kg/injection, schedule: Q04DX003 (ip), vehicle: saline 104 % of control | endpoint: mean survival time, dose: 150.0 mg/kg/injection, schedule: Q04DX003 (ip), vehicle: saline 98 % of control | endpoint: mean survival time, dose: 300.0 mg/kg/injection, schedule: Q04DX003 (ip), vehicle: saline 98 % of control

S=c1nc[nH]c2c1ncn2CN1CCCCC1
inactive: [7] 116 % of control

CCC(Cc1ccccc1Br)C1=NC(C)(C)CO1 (stereo not drawn)
inactive: endpoint: mean survival time, dose: 100.0 mg/kg/injection, schedule: Q01DX001 (ip), vehicle: acetone 96 % of control | endpoint: mean survival time, dose: 200.0 mg/kg/injection, schedule: Q01DX001 (ip), vehicle: acetone 98 % of control

Clc1ccc(CSC2=NCCN2)cc1
inactive: endpoint: mean survival time, dose: 12.5 mg/kg/injection, schedule: Q01DX009 (ip), vehicle: saline 87 % of control | endpoint: mean survival time, dose: 25.0 mg/kg/injection, schedule: Q01DX009 (ip), vehicle: saline 87 % of control | [9] 90 % of control

O=c1[nH]ccc2sccc12
inactive: [4] 100 % of control | [10] 96 % of control | [7] 105 % of control | endpoint: mean survival time, dose: 400.0 mg/kg/injection, schedule: Q04DX003 (ip), vehicle: saline with Tween-80 103 % of control

CC(C)(C)OC(=O)NC(CSC(c1ccccc1)(c1ccccc1)c1ccccc1)C(=O)O (stereo not drawn)
inactive: [11] 93 % of control

NC(=S)N/N=C1\CC2CC1C1C=CCC21 (stereo not drawn)
inactive: [5] 111 % of control | [6] 98 % of control

O=S(=O)(SC1=NCCN1)c1ccccc1
inactive: [12] 101 % of control | [13] 97 % of control | endpoint: mean survival time, dose: 400.0 mg/kg/injection, schedule: Q01DX001 (ip), vehicle: saline 101 % of control

OC1(O)CCN(Cc2ccccc2)CC1
inactive: endpoint: mean survival time, dose: 100.0 mg/kg/injection, schedule: Q04DX003 (ip), vehicle: acetone 94 % of control | endpoint: mean survival time, dose: 200.0 mg/kg/injection, schedule: Q04DX003 (ip), vehicle: acetone 96 % of control | endpoint: mean survival time, dose: 400.0 mg/kg/injection, schedule: Q04DX003 (ip), vehicle: acetone 94 % of control

CC(=O)C(N=Nc1cccc2c1C(=O)c1cccc(Cl)c1C2=O)C(=O)Nc1ccccc1Cl (stereo not drawn)
inactive: [11] 89 % of control | [14] 95 % of control

BrC[P+](CBr)(CBr)CBr
inactive: endpoint: median survival time, dose: 25.0 mg/kg/injection, schedule: Q01DX009 (ip), vehicle: saline with Tween-80 98 % of control | endpoint: median survival time, dose: 50.0 mg/kg/injection, schedule: Q01DX009 (ip), vehicle: saline with Tween-80 102 % of control | endpoint: median survival time, dose: 100.0 mg/kg/injection, schedule: Q01DX009 (ip), vehicle: saline with Tween-80 102 % of control | endpoint: median survival time, dose: 200.0 mg/kg/injection, schedule: Q01DX009 (ip), vehicle: saline with Tween-80 109 % of control | endpoint: median survival time, dose: 400.0 mg/kg/injection, schedule: Q01DX009 (ip), vehicle: saline with Tween-80 96 % of control

O=C(O)Cc1c(Cl)n(-c2ccccc2)c2ccccc12
inactive: endpoint: mean survival time, dose: 25.0 mg/kg/injection, schedule: Q04DX003 (ip), vehicle: saline with Tween-80 96 % of control | endpoint: mean survival time, dose: 50.0 mg/kg/injection, schedule: Q04DX003 (ip), vehicle: saline with Tween-80 102 % of control | [10] 104 % of control

Cc1cccc(C)c1N=NN(C)C
inactive: endpoint: mean survival time, dose: 6.25 mg/kg/injection, schedule: Q01DX009 (ip), vehicle: saline with Tween-80 107 % of control | endpoint: mean survival time, dose: 12.5 mg/kg/injection, schedule: Q01DX009 (ip), vehicle: other 90 % of control | [1] 104 % of control | endpoint: mean survival time, dose: 25.0 mg/kg/injection, schedule: Q01DX009 (ip), vehicle: other 100 % of control | [2] 118 % of control

O=c1[nH]c(=O)c2n[nH]nc2[nH]1
inactive: endpoint: mean survival time, dose: 23.0 mg/kg/injection, schedule: Q01DX009 (ip), vehicle: saline 104 % of control | endpoint: mean survival time, dose: 35.0 mg/kg/injection, schedule: Q01DX009 (ip), vehicle: saline 101 % of control | [9] 98 % of control

O=C(O)C(=O)O.O=N[O-].O=N[O-].[Co+2].[NH2-].[NH2-]
inactive: [15] 93 % of control | [16] 117 % of control | [5] 98 % of control

COc1ccc(CCNC2c3ccccc3C=Cc3ccccc32)cc1OC
inactive: endpoint: mean survival time, dose: 50.0 mg/kg/injection, schedule: Q01DX001 (ip), vehicle: saline with Tween-80 107 % of control | [12] 91 % of control | [13] 100 % of control

Nn1cnnc1SCc1ccccc1
inactive: endpoint: mean survival time, dose: 100.0 mg/kg/injection, schedule: Q04DX003 (ip), vehicle: other 100 % of control | endpoint: mean survival time, dose: 200.0 mg/kg/injection, schedule: Q04DX003 (ip), vehicle: other 97 % of control | endpoint: mean survival time, dose: 400.0 mg/kg/injection, schedule: Q04DX003 (ip), vehicle: other 105 % of control

CCOc1ccc(NC(=O)OCC(C)C)cc1
inactive: endpoint: mean survival time, dose: 100.0 mg/kg/injection, schedule: Q01DX001 (ip), vehicle: saline with Tween-80 97 % of control | endpoint: mean survival time, dose: 200.0 mg/kg/injection, schedule: Q01DX001 (ip), vehicle: saline with Tween-80 101 % of control | endpoint: mean survival time, dose: 400.0 mg/kg/injection, schedule: Q01DX001 (ip), vehicle: saline with Tween-80 89 % of control

CC(C(=O)c1ccccc1)C(c1ccccc1)P(=O)(c1ccccc1)c1ccccc1 (stereo not drawn)
inactive: [4] 102 % of control | [8] 104 % of control

CCCCCCCCCCCCCCCCCC[N+]1(CC)CCCCC1
inactive: endpoint: mean survival time, dose: 0.09 mg/kg/injection, schedule: Q01DX009 (ip), vehicle: saline 98 % of control | endpoint: mean survival time, dose: 0.19 mg/kg/injection, schedule: Q01DX009 (ip), vehicle: saline 98 % of control | endpoint: mean survival time, dose: 0.39 mg/kg/injection, schedule: Q01DX009 (ip), vehicle: saline 101 % of control | endpoint: mean survival time, dose: 0.78 mg/kg/injection, schedule: Q01DX009 (ip), vehicle: saline 98 % of control

O=C1C=C/C(=N\N=C2/C=CC(=O)O2)O1
inactive: [15] 100 % of control | [16] 91 % of control

COc1ccc(COC(=O)Nc2ccc(Cl)cc2)cc1OC
inactive: [5] 96 % of control | [6] 100 % of control | endpoint: mean survival time, dose: 400.0 mg/kg/injection, schedule: Q04DX002 (ip), vehicle: saline with Tween-80 112 % of control

CN(C)c1cccc(C(C)(C)C)n1
inactive: endpoint: mean survival time, dose: 12.5 mg/kg/injection, schedule: Q04DX002 (ip), vehicle: saline 98 % of control | endpoint: mean survival time, dose: 25.0 mg/kg/injection, schedule: Q04DX002 (ip), vehicle: saline 106 % of control | endpoint: mean survival time, dose: 50.0 mg/kg/injection, schedule: Q04DX002 (ip), vehicle: saline 95 % of control

CC(C)(CNC1CCCCC1)OC(=O)c1ccccc1
inactive: [11] 105 % of control | [14] 100 % of control

O=S(=O)(O)O.[Ga]
inactive: [2] 120 % of control | [3] 117 % of control | [4] 90 % of control
